{"source": "patent US20150011463A1", "about": "“AGENT FOR PREVENTING OR AM[…] ENDOTHELIAL MALFUNCTION” (KYOWA HAKKO BIO CO., LTD., priority 2012, published 2015)", "system": "normal human umbilical vein endothelial cell (HUVEC)", "assay": "NO production (nitrite in culture supernatant by HPLC) in HUVEC", "type": "cell-based", "conditions": "citrulline final concentration 0.3 mM, 24-hour culture, vs control (PBS)", "protocol": "The cells were cultured in at 37° C., in 5% CO2 incubator, and used for experiment after 4 to 6 passages. Citrulline and reduced glutathione were obtained from Kyowa Hakko Bio.\nA cell suspension (0.45 mL) with the adjusted initial cell concentration of 5×10^5 cells/mL was inoculated in a 24-well plate (IWAKI). After 40-hour culture, the media were replaced with those containing citrulline (final concentration 0.3 mM: citrulline group), reduced glutathione (final concentration 1 mM: high-dose glutathione group), and a citrulline and reduced glutathione mixture (citrulline final concentration 0.3 mM; glutathione final concentration 0.3 mM: citrulline+low-dose glutathione group). Media with the sole addition of solvent (PBS) were used as a control group. After 24-hour culture, the cell culture (100 μL) was centrifuged at 12,000 rpm for 10 minutes, and the concentration of nitrite (NO2), which is the stable NO metabolite, in culture supernatant was quantified by HPLC (ENO-20, EICOM).", "data": [{"smiles": "NC(=O)NCCC[C@H](N)C(=O)O", "note": "[citrulline]", "values": [{"measurement": "effect on NO production (concentration of nitrite (NO2) in culture supernatant)", "value": "no effect"}]}]}
